logD data for nine compounds are collected here from ChEMBL document CHEMBL1156576, “Determination of log D via automated microfluidic liquid-liquid extraction” (J Med Chem, 2008).

The conditions of data set [1]: buffer, pH 7.4.
For data set [2] the following is noted: buffer, pH 7.4. This is another data set of the same source.
Data set [3] in a line: physchem. The conditions noted are these: buffer, pH 7.4.
Data set [4] can be described thus: physchem. The conditions noted are these: buffer, pH 7.4. The source holds these as a separate data set.

Take `CN(C)CCC(c1ccc(Cl)cc1)c1ccccn1` (stereo not drawn) [CHLORPHENIRAMINE]: the logD (usually the decadic logarithm of the distribution of all forms, ionised or not, between an organic phase and buffer at a given pH) in data set [1] was 0.26; in data set [2], 0.28.

With `CN/C(=N/CCSCc1nc[nH]c1C)NC#N` [CIMETIDINE], the figures for the logD in “physchem [3]” and in “physchem [4]” were 0.29 and 0.34, respectively.

On to `CCN(CC)CCNC(=O)c1cc(S(C)(=O)=O)ccc1OC` [TIAPRIDE], for which the logD in “physchem [3]” is -0.9; in the data set “physchem [4]” it was -0.85.

`CCN(CC)CCNC(=O)c1ccc(N)cc1` [PROCAINAMIDE]: the log distribution coefficient (logD) in the data set “physchem [3]” is -0.94; in the data set “physchem [4]”, -0.89.

In the case of `NS(=O)(=O)c1cc(C2(O)NC(=O)c3ccccc32)ccc1Cl` (stereo not drawn) [CHLORTHALIDONE], the logD in “physchem [3]” is 0.85; in the data set “physchem [4]”, 0.94.

Regarding `CC(=O)Nc1ccc(O)cc1` [ACETAMINOPHEN], the logD turned out to be 0.27 in the data set “physchem [3]” and 0.33 in “physchem [4]”.

Take `CC(C)N(CC[C@](C(N)=O)(c1ccccc1)c1ccccn1)C(C)C` [(S)-DISOPYRAMIDE]: the results for the logD in the data set “physchem [3]” and in the data set “physchem [4]” were 0.39 and 0.52, respectively.

For the compound `CC(=O)OCC(=O)[C@@]1(O)CC[C@H]2[C@@H]3CCC4=CC(=O)CC[C@]4(C)[C@H]3[C@@H](O)C[C@@]21C` [HYDROCORTISONE ACETATE], the logD worked out at 2.11 in “physchem [3]” and 2.21 in the data set “physchem [4]”.

For `CNC(=C[N+](=O)[O-])NCCSCc1ccc(CN(C)C)o1` [RANITIDINE], the log distribution coefficient (logD) was -0.99 in “physchem [3]” and -0.91 in “physchem [4]”.
